Experiments:
[1] = biological target: T1, Bromodomain-containing protein 4 (Homo sapiens, UniProt O60885); assay: Binding affinity to human BRD4 BD2 expressed in Escherichia coli BL21 (DE3) assessed as dissociation constant by bromodomain analysis
Ty-82 = assay: Cytotoxicity against human Ty-82 cells assessed as growth inhibition incubated for 72 hrs by WST-1 assay; details: TY82, 72 h
[2] = biological target: T1, Bromodomain-containing protein 4; assay: Binding affinity to human BRD4 BD1 expressed in Escherichia coli BL21 (DE3) assessed as dissociation constant by bromodomain analysis
in vivo [3] = details: rat, po, 5 mg/kg
Description: Cmax in rat at 5 mg/kg, po

in vivo [4] = details: rat, po, 5 mg/kg; remark: listed apart in the source
Description: Tmax in rat at 5 mg/kg, po

[5] = Half life in rat at 5 mg/kg, po; details: in vivo
MV4-11 = assay: Cytotoxicity against human MV4-11 cells assessed as growth inhibition incubated for 72 hrs by WST-1 assay; details: MV4-11, 72 h
in vivo [6] = details: rat, po, 5 mg/kg; remark: listed apart in the source
Description: AUC (0 to t) in rat at 5 mg/kg, po

in vivo [7] = details: rat, po, 5 mg/kg; remark: listed apart in the source
Description: AUC (0 to infinity) in rat at 5 mg/kg, po

[8] = biological target: T1, Bromodomain-containing protein 4; assay: Binding affinity to human BRD4 BD2 expressed in Escherichia coli BL21 (DE3) assessed as dissociation constant by ITC analysis
[9] = biological target: T1, Bromodomain-containing protein 4; assay: Binding affinity to human BRD4 BD1 expressed in Escherichia coli BL21 (DE3) assessed as dissociation constant by ITC analysis
NCI-H1975 = assay: Antiproliferative activity against human NCI-H1975 cells assessed as growth inhibition incubated for 72 hrs by WST-1 assay; details: NCI-H1975, 72 h
LS-1034 = assay: Antiproliferative activity against human LS1034 cells assessed as growth inhibition incubated for 72 hrs by WST-1 assay; details: LS-1034, 72 h
BJAB = assay: Antiproliferative activity against human BJAB cells assessed as growth inhibition incubated for 72 hrs by WST-1 assay
[10] = Antiproliferative activity against human SNU-2535 cells assessed as growth inhibition incubated for 72 hrs by WST-1 assay; details: SNU-2535, 72 h
Pfeiffer = assay: Antiproliferative activity against human Pfeiffer cells assessed as growth inhibition incubated for 72 hrs by WST-1 assay
U2932 = assay: Antiproliferative activity against human U2932 cells assessed as growth inhibition incubated for 72 hrs by WST-1 assay; details: U2932, 72 h
THP-1 = assay: Antiproliferative activity against human THP-1 cells assessed as growth inhibition incubated for 72 hrs by WST-1 assay; details: THP-1, 72 h
NCI-H1666 = assay: Antiproliferative activity against human NCI-H1666 cells assessed as growth inhibition incubated for 72 hrs by WST-1 assay; details: NCI-H1666, 72 h
KU-19-19 = assay: Antiproliferative activity against human KU-19-19 cells assessed as growth inhibition incubated for 72 hrs by WST-1 assay; details: KU-19-19, 72 h
Raji = assay: Antiproliferative activity against human Raji cells assessed as growth inhibition incubated for 72 hrs by WST-1 assay
MOLT-4 = assay: Antiproliferative activity against human MOLT-4 cells assessed as growth inhibition incubated for 72 hrs by WST-1 assay; details: MOLT-4, 72 h
T-24 = assay: Antiproliferative activity against human T24 cells assessed as growth inhibition incubated for 72 hrs by WST-1 assay; details: T-24, 72 h
K562 = assay: Antiproliferative activity against human K562 cells assessed as growth inhibition incubated for 72 hrs by WST-1 assay; details: K562, 72 h
SUD4 = assay: Antiproliferative activity against human SU-DHL-4 cells assessed as growth inhibition incubated for 72 hrs by WST-1 assay; details: SU-DHL-4, 72 h
Daudi = assay: Antiproliferative activity against human Daudi cells assessed as growth inhibition incubated for 72 hrs by WST-1 assay

| SMILES | Kd [1] | GI50 (Ty-82) | Kd [2] | GI50 (MV4-11) | other results |
| --- | --- | --- | --- | --- | --- |
| Cc1nnc2c(NCCCCNC(=O)c3ccccc3Cl)nc3ccccc3n12 | 110 nM | 9600 nM | 32 nM |  |  |
| Cc1nnc2c(NCCCCNC(=O)OC(C)(C)C)nc3cc(C(=O)O)ccc3n12 | 220 nM | 650 nM | 36 nM |  |  |
| Cc1nnc2c(NCCCCNC(=O)OC(C)(C)C)nc3ccccc3n12 | 190 nM | 1000 nM | 40 nM | 980 nM | Cmax (in vivo [3]): 180 ng/mL; Tmax (in vivo [4]): 40 min; half-life [5]: 211 min; AUC(0-t) (in vivo [6]): 574 ng·h/mL; AUC(0-inf) (in vivo [7]): 851 ng·h/mL |
| Cc1nnc2c(NCCCCCCNC(=O)OC(C)(C)C)nc3ccccc3n12 | > 5000 nM | > 10000 nM | > 5000 nM |  |  |
| COc1ccc2c(c1)nc(NCCCCNC(=O)CC(C)C)c1nnc(C)n12 |  |  |  |  | Kd [8]: 293 nM; Kd [9]: 6.7 nM |
| Cc1sc2c(c1C)C(c1ccc(Cl)cc1)=N[C@@H](CC(=O)Nc1ccc(O)cc1)c1nnc(C)n1-2 [BIRABRESIB] |  | 67 nM |  | 30 nM | GI50 (NCI-H1975): > 10 µM; GI50 (LS-1034): > 10 µM; GI50 (BJAB): 130 nM; GI50 [10]: > 10 µM; GI50 (Pfeiffer): 210 nM; GI50 (U2932): > 10 µM; GI50 (THP-1): 40 nM; GI50 (NCI-H1666): > 10 µM; GI50 (KU-19-19): > 10 µM; GI50 (Raji): > 10 µM; GI50 (MOLT-4): > 10 µM; GI50 (T-24): 7.9 µM; GI50 (K562): > 10 µM; GI50 (SUD4): 2800 nM; GI50 (Daudi): 4 µM |
| COc1ccc2c(c1)nc(OCCCCNC(=O)CC(C)C)c1nnc(C)n12 | > 5000 nM | > 10000 nM | > 5000 nM | > 10000 nM |  |
| Cc1nnc2c(NCCCCNC(=O)c3ccccc3)nc3ccccc3n12 | 180 nM | 950 nM | 29 nM | 790 nM |  |
